From paper PMC10258794, “To Fold or Not to Fold: Diastereomeric Optimization of an α-Helical Antimicrobial Peptide” (Journal of Medicinal Chemistry, 2023)
≈ marks a conversion by molar mass, not a printed value. Where two headings read alike, the source gives them in different places. Non-standard residues stand in square brackets, D forms with d. Residues, ends and D or L forms follow the SMILES beside them.

How the values were obtained:
[1] = EYPC vesicle leakage assay; type: biochemical; settings: 10 μg/mL of compound; 10 mM TRIS, 107 mM NaCl, pH 7.4
Description: 5(6)-carboxyfluorescein (CF) was purchased from Sigma. EYPC, EYPG, and a Mini-Extruder were purchased from Avanti Polar Lipids. Egg PC or Egg PG thin lipid layers were prepared by evaporating a solution of 100 mg of EYPC or EYPG in 4 mL of MeOH/CHCl3 (1:1) on a rotary evaporator at room temperature and then dried in vacuo overnight. […] Extravesicular components were removed by gel filtration (Sephadex G-50) with 10 mM TRIS, 107 mM NaCl, pH 7.4 buffer. Final conditions: ∼2.5 mM PC or PG; inside: 50 mM CF, 10 mM TRIS, 10 mM NaCl, pH 7.4 buffer; outside: 10 mM TRIS, 107 mM NaCl, pH 7.4. […] The CF efflux was monitored at λem 517 nm (λex 492 nm) as a function of time after addition of the desired volume of peptide from 2 mg/mL stock in mQ water at t = 45 s, 10 and 50 μg/mL were monitored for both EYPC and EYPG. […] Fluorescence intensities were then normalized to the maximal emission intensity using I(t) = (It – I0)/(I∞ – I0) where I0 = It at peptide addition, I∞ = It at saturation of lysis.

A. baumannii ATCC19606 = tested on: A. baumannii ATCC19606
Description: (§1) Antimicrobial activity was determined for all peptides on E. coli W3110, P. aeruginosa PAO1, A. baumannii ATCC19606, K. pneumoniae NCTC418, and methicillin-resistant S. aureus COL and for selected peptides on P. aeruginosa PA14 and the polymyxin B-resistant derivatives PA14 4.13, PA14 4.18, and PA14 2P4 as well as the clinical isolates ZEM-1A and ZEM9A, K. pneumoniae OXA-48, Enterobacter cloacae, Stenotrophomonas maltophilia, B. cenocepacia, and Staphylococus epidermis. To determine the MIC, the broth microdilution method was used.[75] A single bacterial colony was grown in LB medium overnight at 37 °C and 180 rpm shaking. The compounds were prepared as stock solutions of 2 mg/mL in sterilized milliQ deionized water, added to the first well of 96-well sterile, polypropylene round-bottom microtiter plates (TPP, untreated, Corning Incorporated, Kennebunk, USA), and diluted serially by 1/2. […] The bacterial inoculum was prepared by measuring the absorbance of the overnight culture, which was diluted to concentration of the bacteria was quantified by measuring absorbance at 600 nm and diluted to an OD600 of 0.022 in MH medium pH 7.4 (Sigma-Aldrich, Buchs, Switzerland). The sample solutions (150 μL) were mixed with 4 μL of diluted bacterial suspension with a final inoculation of about 5 × 10^5 CFU. For each test, two columns of the plate were kept for sterility control (MH medium only) and growth control (MH medium with bacterial inoculum, no compound). […] The plates were incubated at 37 °C for 16–20 h under static conditions. 15 μL of 3-(4,5-dimethylthiazol-2-yl)-2,5-diphenyltetrazolium bromide (MTT)[76] (1 mg/mL in sterilized milliQ deionized water) was added to each well, and the plates were incubated at room temperature until MTT staining was completed. The MIC was defined as the lowest concentration of the dendrimer that inhibits the visible growth of the tested bacteria (yellow) with the unaided eye.

E. coli W3110 = tested on: E. coli W3110
Description: as §1

K. pneumoniae NCTC418 = tested on: K. pneumoniae NCTC418
Description: as §1

P. aeruginosa PAO1 = tested on: P. aeruginosa PAO1
Description: as §1

S. aureus COL MRSA = tested on: S. aureus COL MRSA
Description: as §1

Enterobacter cloacae = assay: microbe, parasite or virus in culture
Description: as §1

P. aeruginosa ZEM-1A = assay: microbe, parasite or virus in culture; settings: ZEM-1A
Description: as §1

human red blood cells = assay: Hemolysis assay (MHC)
Description: To determine the MHC stock solutions, 8 mg/mL peptide in PBS (pH 7.4) was prepared, and 50 μL was diluted serially by l/2 in 50 μL of PBS (pH 7.4) in a 96-well plate (Costar or Nunc, polystyrene, untreated). […] Plasma was discarded, and the pellet was re-suspended in a 15 mL Falcon tube in 5 mL of PBS. The washing was repeated three times, and the remaining pellet was re-suspended in 10 mL of PBS. The hRBC suspension (50 μL) was added to each well, and the plate was incubated at room temperature for 4 h. MHC end points were determined by visual determination of the wells after the incubation period. Controls on each plate included a blank medium control (50 μL PBS + 50 μL of hRBCs suspension) and a hemolytic activity control (mQ-deionized water 50 μL + 50 μL hRBC suspension).

[2] = MH broth pH 7.4, 16–20 h, 37 °C
[3] = supplementary CSV, ranges of Table 1 given as one number

Molecule | MIC A. baumannii ATCC19606 (A. baumannii ATCC19606; [2]) [µg/mL] | MIC A. baumannii ATCC19606 (A. baumannii ATCC19606; [3]) [µg/mL] | MIC E. coli W3110 (E. coli W3110; [2]) [µg/mL] | MIC K. pneumoniae NCTC418 (K. pneumoniae NCTC418; [2]) [µg/mL] | MIC P. aeruginosa PAO1 (P. aeruginosa PAO1; [2]) [µg/mL] | MIC P. aeruginosa PAO1 (P. aeruginosa PAO1; [3]) [µg/mL] | MIC S. aureus COL MRSA (S. aureus COL MRSA; [2]) [µg/mL] | MIC S. aureus COL (S. aureus COL MRSA; [3]) [µg/mL] | also measured
CC(C)C[C@H](NC(=O)[C@H](CC(C)C)NC(=O)[C@H](CC(C)C)NC(=O)[C@@H](CCCCN)NC(=O)[C@@H](CC(C)C)NC(=O)[C@@H](CC(C)C)NC(=O)[C@@H](CCCCN)NC(=O)[C@@H](CC(C)C)NC(=O)[C@H](CC(C)C)NC(=O)[C@H](CCCCN)NC(=O)[C@@H](N)CCCCN)C(N)=O [HP29, KKLlkllkLLL] | 8 (≈ 6.05 µM) | 8 (≈ 6.05 µM) | 2 (≈ 1.51 µM) | 64 (≈ 48.4 µM) | 4 (≈ 3.03 µM) | 4 (≈ 3.03 µM) | 32 (≈ 24.2 µM) | 32 (≈ 24.2 µM) | EYPC vesicle leakage (%) [1]: 6%; MIC K. pneumoniae NCTC418 (K. pneumoniae NCTC418; [3]): 64 µg/mL (≈ 48.4 µM)
CC(C)C[C@H](NC(=O)[C@H](CC(C)C)NC(=O)[C@H](CCCCN)NC(=O)[C@H](CC(C)C)NC(=O)[C@H](CC(C)C)NC(=O)[C@@H](CCCCN)NC(=O)[C@H](N)CCCCN)C(=O)N[C@@H](CCCCN)C(=O)N[C@@H](CC(C)C)C(=O)N[C@@H](CC(C)C)C(=O)N[C@H](CC(C)C)C(N)=O [HP7] | – | – | – | – | – | – | – | – | MIC E. cloacae (Enterobacter cloacae): 2 µg/mL (≈ 1.51 µM); MIC ZEM-1A (P. aeruginosa ZEM-1A; pH 7.4): 1 µg/mL (≈ 0.757 µM)
CC[C@H](C)[C@H](NC(=O)[C@@H](NC(=O)[C@@H](NC(=O)[C@@H](CCCNC(=N)N)NC(=O)[C@@H](NC(=O)[C@@H](NC(=O)[C@@H](CCCNC(=N)N)NC(=O)[C@@H](NC(=O)[C@@H](NC(=O)[C@@H](CCCNC(=N)N)NC(=O)[C@H](N)CCCNC(=N)N)[C@@H](C)CC)[C@@H](C)CC)[C@@H](C)CC)[C@@H](C)CC)[C@@H](C)CC)[C@@H](C)CC)C(N)=O [HP37, rrIIrIIrIII] (H-[dR][dR]II[dR]II[dR]III-NH2) | – | – | – | – | – | – | – | – | MHC (human red blood cells): 250 µg/mL; MHC (human red blood cells; pH 7.4): 250 µg/mL; MIC A. baumannii ATCC19606 (A. baumannii ATCC19606; ATCC19606): 12 µg/mL (≈ 8.37 µM); MIC A. baumannii ATCC19606 (A. baumannii ATCC19606; ATCC19606, pH 7.4): 8 to 16 µg/mL; MIC K. pneumoniae NCTC418 (K. pneumoniae NCTC418; NCTC418): 48 µg/mL (≈ 33.5 µM); MIC K. pneumoniae NCTC418 (K. pneumoniae NCTC418; NCTC418, pH 7.4): 32 to 64 µg/mL; MIC P. aeruginosa PAO1 (P. aeruginosa PAO1; PAO1): 6 µg/mL (≈ 4.18 µM); MIC P. aeruginosa PAO1 (P. aeruginosa PAO1; PAO1, pH 7.4): 4 to 8 µg/mL; MIC S. aureus COL (S. aureus COL MRSA; COL): 12 µg/mL (≈ 8.37 µM); MIC S. aureus COL MRSA (S. aureus COL MRSA; COL, pH 7.4): 8 to 16 µg/mL
CC(C)C[C@H](NC(=O)[C@@H](CC(C)C)NC(=O)[C@H](CCCCN)NC(=O)[C@@H](CC(C)C)NC(=O)[C@H](CC(C)C)NC(=O)[C@@H](CCCCN)NC(=O)[C@H](CC(C)C)NC(=O)[C@@H](CC(C)C)NC(=O)[C@H](CCCCN)NC(=O)[C@H](N)CCCCN)C(=O)N[C@H](CC(C)C)C(N)=O [HP31, kKlLkLlKlLl] | 32 (≈ 24.2 µM) | 32 (≈ 24.2 µM) | 8 (≈ 6.05 µM) | >64 | 8 (≈ 6.05 µM) | 8 (≈ 6.05 µM) | 32 (≈ 24.2 µM) | 32 (≈ 24.2 µM) | –
CC(C)C[C@H](NC(=O)[C@H](CCCCN)NC(=O)[C@H](N)CCCCN)C(=O)N[C@@H](CC(C)C)C(=O)N[C@H](CCCCN)C(=O)N[C@H](CC(C)C)C(=O)N[C@H](CC(C)C)C(=O)N[C@@H](CCCCN)C(=O)N[C@@H](CC(C)C)C(=O)N[C@@H](CC(C)C)C(=O)N[C@H](CC(C)C)C(N)=O [HP28, kKLLkllKLLl] | – | – | 2 to 4 | >64 | 4 (≈ 3.03 µM) | 4 (≈ 3.03 µM) | 32 (≈ 24.2 µM) | 32 (≈ 24.2 µM) | EYPC vesicle leakage (%) [1]: 3%; MIC E. coli W3110 (E. coli W3110; [3]): 3 µg/mL (≈ 2.27 µM)
CC(C)C[C@H](NC(=O)[C@@H](CC(C)C)NC(=O)[C@@H](CC(C)C)NC(=O)[C@H](CCCCN)NC(=O)[C@H](CC(C)C)NC(=O)[C@H](CC(C)C)NC(=O)[C@H](CCCCN)NC(=O)[C@H](CC(C)C)NC(=O)[C@@H](CC(C)C)NC(=O)[C@@H](CCCCN)NC(=O)[C@@H](N)CCCCN)C(N)=O [HP17, KklLKLLKllL] | 32 (≈ 24.2 µM) | 32 (≈ 24.2 µM) | 8 (≈ 6.05 µM) | 32 to 64 | 16 (≈ 12.1 µM) | 16 (≈ 12.1 µM) | 32 to 64 | 48 (≈ 36.3 µM) | MIC K. pneumoniae NCTC418 (K. pneumoniae NCTC418; [3]): 48 µg/mL (≈ 36.3 µM)
CC(C)CC(NC(=O)C(CC(C)C)NC(=O)C(CC(C)C)NC(=O)C(CCCCN)NC(=O)C(CC(C)C)NC(=O)C(CC(C)C)NC(=O)C(CCCCN)NC(=O)C(CC(C)C)NC(=O)C(CC(C)C)NC(=O)C(CCCCN)NC(=O)C(N)CCCCN)C(N)=O (racemic) [sr-ln65] | 4 (≈ 3.03 µM) | – | 4 (≈ 3.03 µM) | 16 to 32 | 4 (≈ 3.03 µM) | – | 8 (≈ 6.05 µM) | – | –
H-RRIIRIIRIII-NH2 [HP36] | – | – | – | – | – | – | – | – | MHC (human red blood cells): 63 µg/mL; MHC (human red blood cells; pH 7.4): 62.5 µg/mL; MIC A. baumannii ATCC19606 (A. baumannii ATCC19606; ATCC19606): 12 µg/mL; MIC A. baumannii ATCC19606 (A. baumannii ATCC19606; ATCC19606, pH 7.4): 8 to 16 µg/mL; MIC S. aureus COL (S. aureus COL MRSA; COL): 24 µg/mL; MIC S. aureus COL MRSA (S. aureus COL MRSA; COL, pH 7.4): 16 to 32 µg/mL
H-RRLLRLLRLLL-NH2 [HP32] | – | – | – | – | – | – | – | – | MHC (human red blood cells; human red blood cells in PBS pH 7.4, 4 h, room temperature): 15.6 µg/mL; MHC (human red blood cells; supplementary CSV, human red blood cells): 16 µg/mL
CC(C)C[C@H](NC(=O)[C@H](CC(C)C)NC(=O)[C@H](CC(C)C)NC(=O)[C@H](CCCCN)NC(=O)[C@H](CC(C)C)NC(=O)[C@H](CC(C)C)NC(=O)[C@H](CCCCN)NC(=O)[C@@H](CC(C)C)NC(=O)[C@@H](CC(C)C)NC(=O)[C@@H](CCCCN)NC(=O)[C@@H](N)CCCCN)C(N)=O [HP8, KkllKLLKLLL] | – | – | – | – | – | – | – | – | MIC P. aeruginosa ZEM-1A (P. aeruginosa ZEM-1A): 2 µg/mL (≈ 1.51 µM)
CC(C)C[C@H](NC(=O)[C@@H](CC(C)C)NC(=O)[C@H](CC(C)C)NC(=O)[C@@H](CCCCN)NC(=O)[C@H](CC(C)C)NC(=O)[C@@H](CC(C)C)NC(=O)[C@H](CCCCN)NC(=O)[C@@H](CC(C)C)NC(=O)[C@H](CC(C)C)NC(=O)[C@@H](CCCCN)NC(=O)[C@@H](N)CCCCN)C(N)=O [HP30, KkLlKlLkLlL] | 32 (≈ 24.2 µM) | 32 (≈ 24.2 µM) | 8 (≈ 6.05 µM) | >64 | 8 to 16 | 12 (≈ 9.08 µM) | 64 (≈ 48.4 µM) | 64 (≈ 48.4 µM) | –
